Where two headings read alike, the source gives them in different places.

The inhibition is the relative decrease from the control value, in per cent.

Experiment [1] concerns the target T1, human B1R receptor (CHO K1 cells stably transfected with the human B1R gene) (Homo sapiens, UniProt P46663).
T1 construct: expressed in transfected cells; host or cells: CHO K1 cells (Chinese hamster ovary), stably transfected
T1 sequence (P46663 1-353): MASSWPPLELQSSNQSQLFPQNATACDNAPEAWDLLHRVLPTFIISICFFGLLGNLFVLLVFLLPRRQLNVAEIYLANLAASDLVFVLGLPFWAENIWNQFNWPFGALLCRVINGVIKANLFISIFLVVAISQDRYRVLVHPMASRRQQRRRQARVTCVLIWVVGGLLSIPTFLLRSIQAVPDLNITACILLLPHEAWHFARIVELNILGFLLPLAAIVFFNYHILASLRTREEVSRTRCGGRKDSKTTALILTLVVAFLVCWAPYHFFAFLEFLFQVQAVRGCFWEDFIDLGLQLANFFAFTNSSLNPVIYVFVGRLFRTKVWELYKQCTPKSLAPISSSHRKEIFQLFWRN
Description: Functional study on the bradykinin receptor 1 (B1R), Ca2+ fluorescence (Fluo-4) FLIPR/Novostar assay, hB1R cells. It counts as cell-based. An outline of the steps: (§1)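 Test compounds (10 μM) were added first and the Ca2+ rise was scored as % activation against Lys-Des-Arg9-bradykinin (≥50 nM, human) or Des-Arg9-bradykinin (≥1 μM, rat). After 6-20 min, the matching agonist was given at its EC80, and % inhibition relative to maximal achievable inhibition was calculated.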

The target of experiment [2] is T2, B1R receptor of the rat (CHO K1 cells stably transfected with the B1R gene of the rat) (Rattus norvegicus, UniProt P97583).
T2 construct: expressed in transfected cells; host or cells: CHO K1 cells (Chinese hamster ovary), stably transfected
T2 sequence (P97583 1-337): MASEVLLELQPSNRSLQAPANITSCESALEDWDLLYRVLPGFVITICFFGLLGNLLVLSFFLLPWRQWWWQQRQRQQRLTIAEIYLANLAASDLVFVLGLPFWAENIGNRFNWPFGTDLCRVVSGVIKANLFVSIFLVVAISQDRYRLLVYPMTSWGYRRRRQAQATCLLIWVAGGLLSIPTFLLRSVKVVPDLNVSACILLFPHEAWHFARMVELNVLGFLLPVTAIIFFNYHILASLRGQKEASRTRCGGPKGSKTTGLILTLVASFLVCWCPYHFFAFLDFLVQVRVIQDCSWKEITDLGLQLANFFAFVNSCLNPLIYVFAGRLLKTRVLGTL
Kind of experiment: Functional study on the bradykinin receptor 1 (B1R), Ca2+ fluorescence (Fluo-4) FLIPR/Novostar assay, rB1R cells. It counts as cell-based. The following applies: for inhibition at 10 µM: CHO-K1, 10 μM. The gist of the method:
as §1

[3] abbreviates: CHO-K1, read-out: % inhibition (human B1R) at 10 μM.
The mark [4] stands for this setting: read-out: % inhibition (rat B1R) at 10 μM.
The mark [5] stands for this setting: CHO-K1, read-out: % Inhibition (h-B1R) at 10 μM.
The mark [6] stands for this setting: read-out: % Inhibition (r-B1R) at 10 μM.

On to `CN(C(=O)c1ccc2c(c1)[C@H](NC(=O)c1ccccc1F)CC2)C1CCN(c2ccncc2)CC1` [Example H-29, (3R)-3-[(2-Fluoro-benzoyl)amino]-N-methyl-N-(1-pyridin-4-yl-piperidin-4-yl)-2,3-dihydro-1H-indene-5-carboxylic acid amide], for which the inhibition at 10 µM was 99% in experiment [1] (setting [3]) and 100% in experiment [2] (setting [4]).

`O=C(NC1CCN(c2ccc(C(F)(F)F)cn2)C1)c1ccc2c(c1)[C@H](NC(=O)c1ccccc1Cl)CC2` (stereo partly drawn) [Example H-04, (3R)-3-[(2-Chloro-benzoyl)amino]-N-[1-[5-(trifluoromethyl)-pyridin-2-yl]-pyrrolidin-3-yl]-2,3-dihydro-1H-indene-5-carboxylic acid amide]: the inhibition at 10 µM in experiment [1] (setting [3]) was determined as 21%; in experiment [2] (setting [4]) it was 47%.

Consider `CC(C)CC(=O)NC1CCc2ccc(C(=O)N(C)C3CCN(c4ccncc4)CC3)cc21` (stereo not drawn) [CC_H-41, N-Methyl-3-(3-methyl-butanoylamino)-N-(1-pyridin-4-yl-piperidin-4-yl)-2,3-dihydro-1H-indene-5-carboxylic acid amide], for which the inhibition at 10 µM in experiment [1] (setting [5]) was determined as 100%; in experiment [2] (setting [6]) it was 104%.

For the molecule `CN(C(=O)c1ccc2c(c1)[C@H](NC(=O)C(C)(C)C)CC2)C1CCN(c2ccncc2)CC1` [Example H-19, (3R)-3-(2,2-Dimethyl-propanoylamino)-N-methyl-N-(1-pyridin-4-yl-piperidin-4-yl)-2,3-dihydro-1H-indene-5-carboxylic acid amide], the inhibition at 10 µM was determined as 98% in experiment [1] (setting [3]) and 103% in experiment [2] (setting [4]).

On to `CN(C(=O)c1ccc2c(c1)C(NC(=O)c1sccc1Cl)CCO2)C1CCN(c2ccncc2)CC1` (stereo not drawn) [CC_H-40, 4-[(3-Chloro-thiophene-2-carbonyl)amino]-N-methyl-N-(1-pyridin-4-yl-piperidin-4-yl)-3,4-dihydro-2H-chromene-6-carboxylic acid amide], for which the inhibition at 10 µM in experiment [1] (setting [5]) is 95%; in experiment [2] (setting [6]), 100%.

`CN(C(=O)c1ccc2c(c1)[C@H](NS(=O)(=O)c1ccccc1Cl)CC2)C1CCN(c2ccncc2)CC1` [Example H-33, (3R)-3-[[(2-Chlorophenyl)sulfonyl]amino]-N-methyl-N-(1-pyridin-4-yl-piperidin-4-yl)-2,3-dihydro-1H-indene-5-carboxylic acid amide]: the results for the inhibition at 10 µM in experiment [1] (setting [3]) and in experiment [2] (setting [4]) were 100% and 101%, respectively.

As for `CC(C)CC(=O)NC1CCOc2ccc(C(=O)N(C)C3CCN(c4ccncc4)CC3)cc21` (stereo not drawn) [CC_H-39, N-Methyl-4-(3-methyl-butanoylamino)-N-(1-pyridin-4-yl-piperidin-4-yl)-3,4-dihydro-2H-chromene-6-carboxylic acid amide], the inhibition at 10 µM in experiment [1] (setting [5]) stood at 99%. For the same molecule, in experiment [2] (10 μM), the “% Inhibition (r-B1R) at 10 μM” value is given as 104%.

Consider `CN(C(=O)c1ccc2c(c1)C(NC(=O)CCC1CCCC1)CCO2)C1CCN(c2ccncc2)CC1` (stereo not drawn) [CC_H-49, 4-(3-Cyclopentyl-propanoylamino)-N-methyl-N-(1-pyridin-4-yl-piperidin-4-yl)-3,4-dihydro-2H-chromene-6-carboxylic acid amide], for which the inhibition at 10 µM in experiment [1] (setting [5]) came out at 99%; in experiment [2] (setting [6]), 102%.

`O=C(NCCC1CCN(c2ccncc2)CC1)c1ccc2c(c1)C(NC(=O)c1cnccc1C(F)(F)F)CC2` (stereo not drawn) [CC_H-37, N-[6-[2-(1-Pyridin-4-yl-piperidin-4-yl)-ethyl-carbamoyl]-2,3-dihydro-1H-inden-1-yl]-4-(trifluoromethyl)-pyridine-3-carboxylic acid amide]: the inhibition at 10 µM stood at 93% in experiment [1] (setting [5]) and 104% in experiment [2] (setting [6]).

Regarding `CC(C)CC(=O)N[C@@H]1CCc2cc(C(=O)N(C)C3CCN(c4ccncc4)CC3)ccc21` [Example H-34, (1R)-N-Methyl-1-(3-methyl-butanoylamino)-N-(1-pyridin-4-yl-piperidin-4-yl)-2,3-dihydro-1H-indene-5-carboxylic acid amide], the inhibition at 10 µM in experiment [1] (setting [3]) is 64%; in experiment [2] (setting [4]) it was 7%.

`O=C(N[C@H]1CCN(C2CCN(C3CC3)CC2)C1)c1ccc2c(c1)[C@H](NC(=O)c1ccccc1Cl)CC2` [Example H-09, (3R)-3-[(2-Chloro-benzoyl)amino]-N-[(3S)-1-(1-cyclopropyl-piperidin-4-yl)-pyrrolidin-3-yl]-2,3-dihydro-1H-indene-5-carboxylic acid amide]: the inhibition at 10 µM in experiment [1] (setting [3]) was 38%; in experiment [2] (setting [4]), 83%.

Regarding `CN(C(=O)c1cc2c(cc1F)[C@H](NC(=O)c1ccccc1Cl)CC2)C1CCN(c2ccncc2)CC1` [Example H-57, (1R)-1-[(2-Chloro-benzoyl)amino]-6-fluoro-N-methyl-N-(1-pyridin-4-yl-piperidin-4-yl)-2,3-dihydro-1H-indene-5-carboxylic acid amide], the inhibition at 10 µM in experiment [1] (setting [3]) and in experiment [2] (setting [4]) was 100% each time.

Regarding `Cc1cc(N2CCC(N(C)C(=O)c3ccc4c(c3)[C@H](NC(=O)c3cccnc3C(F)(F)F)CC4)CC2)nc(C)n1` [Example H-91, N-[(1R)-6-[[1-(2,6-Dimethyl-pyrimidin-4-yl)-piperidin-4-yl]-methyl-carbamoyl]-2,3-dihydro-1H-inden-1-yl]-2-(trifluoromethyl)-pyridine-3-carboxylic acid amide], the inhibition at 10 µM in experiment [1] (setting [3]) came to 100%; in experiment [2] (setting [4]) it was 108%.

On to `O=C(NCCC1CCN(c2ccncc2)CC1)c1ccc2c(c1)C(NC(=O)c1cc(F)ccc1Cl)CC2` (stereo not drawn) [CC_H-36, 3-[(2-Chloro-5-fluoro-benzoyl)amino]-N-[2-(1-pyridin-4-yl-piperidin-4-yl)-ethyl]-2,3-dihydro-1H-indene-5-carboxylic acid amide], for which the inhibition at 10 µM in experiment [1] (setting [5]) was 99%; in experiment [2] (setting [6]), 104%.

Take `CN(C(=O)c1ccc2c(c1)[C@H](NC(=O)c1ccccc1C(F)(F)F)CC2)C1CCN(c2ccncc2)CC1` [Example H-30, (3R)-N-Methyl-N-(1-pyridin-4-yl-piperidin-4-yl)-3-[[2-(trifluoromethyl)-benzoyl]amino]-2,3-dihydro-1H-indene-5-carboxylic acid amide]: the inhibition at 10 µM in experiment [1] (setting [3]) is 100%; in experiment [2] (setting [4]), 99%.

For the molecule `CN(C(=O)c1ccc2c(c1)[C@H](NC(=O)c1cnn3cccnc13)CC2)C1CCN(c2ccncc2)CC1` [Example H-22, N-[(1R)-6-[Methyl-(1-pyridin-4-yl-piperidin-4-yl)-carbamoyl]-2,3-dihydro-1H-indene-1-yl]-pyrazolo[1,5-a]pyrimidine-3-carboxylic acid amide], the inhibition at 10 µM worked out at 100% in experiment [1] (setting [3]) and 87% in experiment [2] (setting [4]).

Turning to `CCN(C(=O)c1ccc2c(c1)[C@H](NC(=O)c1ccccc1Cl)CC2)C1CCN(c2ccncc2)CC1` [Example H-77, (3R)-3-[(2-Chloro-benzoyl)amino]-N-ethyl-N-(1-pyridin-4-yl-piperidin-4-yl)-2,3-dihydro-1H-indene-5-carboxylic acid amide], the inhibition at 10 µM in experiment [1] (setting [3]) was 100%; in experiment [2] (setting [4]) it was 104%.

Consider `CN(C(=O)c1ccc2c(c1)[C@H](NC(=O)c1ccccc1Cl)CC2)C1CCN(CC(=O)N2CCCC2)CC1` [Example H-140, (3R)-3-[(2-Chloro-benzoyl)amino]-N-methyl-N-[1-(2-oxo-2-pyrrolidin-1-yl-ethyl)-piperidin-4-yl]-2,3-dihydro-1H-indene-5-carboxylic acid amide], for which the results for the inhibition at 10 µM in experiment [1] (setting [3]) and in experiment [2] (setting [4]) were 47% and 49%, respectively.

Regarding `Cc1cc(N2CCC(N(C)C(=O)c3ccc4c(c3)[C@H](NC(=O)C(C)(C)F)CC4)CC2)ccn1` [Example H-179, (3R)-3-[(2-Fluoro-2-methyl-propanoyl)amino]-N-methyl-N-[1-(2-methyl-pyridin-4-yl)-piperidin-4-yl]-2,3-dihydro-1H-indene-5-carboxylic acid amide], the inhibition at 10 µM was determined as 94% in experiment [1] (setting [3]) and 100% in experiment [2] (setting [4]).

As for `COc1c(C)cnc(CN2CCC(N(C)C(=O)c3ccc4c(c3)[C@H](NC(=O)c3ccccc3Cl)CC4)CC2)c1C` [Example H-131, (3R)-3-[(2-Chloro-benzoyl)amino]-N-[1-[(4-methoxy-3,5-dimethyl-pyridin-2-yl)-methyl]-piperidin-4-yl]-N-methyl-2,3-dihydro-1H-indene-5-carboxylic acid amide], the inhibition at 10 µM stood at 55% in experiment [1] (setting [3]) and 77% in experiment [2] (setting [4]).

With `CN(C(=O)c1ccc2c(c1)C(NC(=O)c1cccc(Cl)c1Cl)CCC2)C1CCN(c2ccncc2)CC1` (stereo not drawn) [CC_H-03, 8-[(2,3-Dichloro-benzoyl)amino]-N-methyl-N-(1-pyridin-4-yl-piperidin-4-yl)-5,6,7,8-tetrahydro-naphthalene-2-carboxylic acid amide], the inhibition at 10 µM was 99% in experiment [1] (setting [5]) and 103% in experiment [2] (setting [6]).

Values taken from patent US8680159B2, “Bradykinin 1 receptor modulating compounds” (Gruenenthal GmbH, priority 2010, dated 2014).
